US10980777B2, “Indole derivatives as histone demethylase inhibitors” (Istituto Europeo di Oncologia S.r.l., priority 2017, dated 2021)
pIC50: −log10 of the molar value. Structures can show the parent of a compound that is named as a salt.

Assays:
[1] = target: T1, human recombinant KDM1A/CoREST protein (Homo sapiens, UniProt O60341); assay: Assay of enzyme inhibition of KDM1A (LSD1), TR-FRET; format: biochemical; conditions: 0.25 nM KDM1A/CoREST, 50 nM H3K4 monomethylated peptide, 20 min at RT; read-out: IC50, KDM1A (LSD1) enzyme inhibition
T1 construct: made in house; host or cells: E. coli
Protocol: 2.1 Assay of Enzyme Inhibition of KDM1A (LSD1)
The KDM1A inhibiting activity was determined using a TR-FRET assay (time resolved fluorescence resonance energy transfer, Lance® Ultra Demethylase technology (Perkin Elmer, Waltham, Mass., USA)), which comprises a Europium chelate donor dye (TRF0404, Perkin Elmer, Waltham, Mass., USA) together with ULight™ (TR0102, Perkin Elmer, Waltham, Mass., USA), a small molecular weight acceptor dye with a red-shifted fluorescent emission, and a biotinylated 21 amino acids histone H3-derived monomethylated peptide (H3K4me) [Lys(Me1)4]-Histone H3 (1-21)-GGK(biotin), (64355, Anaspec, Fremont, Calif., USA) as substrate. The intensity of the light emission is proportional to the level of biotinylated reaction product. The complex of human recombinant KDM1A/CoREST protein was produced in E. coli as separate proteins and co-purified as previously described.(Forneris, F. et al. Trends Biochem, Sci, 2008, 33, 181-189) (Forneris, F. et al. J. Biol. Chem. 2007, 282, 20070-20074).
Demethylase Assay conditions: 0.25 nM KDM1A/CoREST protein and compound in 100% DMSO were added in a final volume of 48 μL assay buffer (Tris HCl 50 mM pH 8.8, NaCl 50 mM, DTT 1 mM, Tween-20 0.01% (by volume)) to each well of a 96 well half area flat bottom white plate (3693 Costar, Sigma-Aldrich, St. Louis, M, USA).
Demethylase reaction was started by the addition of 50 nM histone H3K4 monomethylated. After 20 min at RT, 300 μM tranylcypromine (P8511-1G, Sigma-Aldrich, St. Louis, Mo. 63103) was added to stop the reaction.
Detection step conditions: 10 μL of the assay mixture was transferred from the original plate into a 384 well white plate (6007290 OptiPlate™, Perkin Elmer, Waltham, Mass., USA) and 10 μL of the detection Mix containing 2 nM Eu-antibody and 10 nM U-Light-Streptavidin in 1× Lance Detection Buffer (TRF0404, TR0102, CR97100, Perkin Elmer, Waltham, Mass., USA). The resulting mixture was incubated in the dark for 1 h at RT. Then, TR-FRET signal was read by a fluorimeter (Infinite® F200, Tecan, Männedorf, Switzerland) (Excitation 320 nm, Emission 665 nm and 620 nm, delay time 50 μs, window time 100 μs).
IC50 determination: The inhibitor concentrations ranged from 0.025 to 500 μM (serial 1:3 dilutions). The IC50 was calculated using GraphPad Software.

[2] = system: Human leukemia MV4-11 cells; assay: Cell growth, CellTiter-Fluor cell viability assay, MV4-11; format: cell-based; conditions: 48 h incubation, read-out: IC50 against human leukemia MV4-11 cells
Text: (§1) CellTiter-Flor® (Promega) is as a nonlytic, single-reagent-addition fluorescence assay that measures the relative number of living cells in a culture population after experimental manipulation. The CellTiter-Fluor™ Cell Viability Assay measures the conserved and constitutive protease activity within live cells and therefore acts as a marker for cell viability.
(§2) Human leukemia MV4-11 cells, (obtained from the Deutsche Sammlung von Mikroorganismen und Zellkulturen, ACC 102) or NB4 cells, (obtained from the Deutsche Sammlung von Mikroorganismen und Zellkulturen) in exponential growth, were incubated for 48 h with different concentrations of the inhibitors. After 48 h a volume of CellTiter-Fluor® Reagent equal to one fifth of volume of cell culture medium was added. The content was mixed and incubates for at least 90 min at 37° C. degree to obtain a stable signal. The fluorescence was recorded using an excitation wavelength of 360 nm and an emission at 535 nm. The IC50 was calculated using GraphPad Software.

human leukemia NB4 cells = assay: Cell growth, CellTiter-Fluor cell viability assay, NB4; format: cell-based; conditions: NB-4, 48 h incubation, read-out: IC50 against human leukemia NB4 cells
Text: as §1, §2

Question: What does the source list for `Cn1c(C(=O)c2cn(CCOc3ccc(OCC4CCNCC4)cc3)c3ccccc23)cc2sccc21` [Compound 19, (4-methylthieno[3,2-b]pyrrol-5-yl)-[1-[2-[4-(4-piperidylmethoxy)phenoxy]ethyl]indol-3-yl]methanone hydrochloride]?
Answer: pIC50 [1]: > 6.30; pIC50 [2]: > 5.00; pIC50 (human leukemia NB4 cells): > 5.00
